Laboratory results taken from ChEMBL document CHEMBL4251699, “In Search of the Optimal Macrocyclization Site for Neurotensin” (ACS Med Chem Lett, 2018).
Numbered stars: 1 amine (or outer) side, 2 acyl side, 3 side chain; on linkers, the order of the positions; unused ones are H or OH. Bridge positions count the residues as written; N and C are the ends. Square brackets hold non-standard residues; d marks the D form. Peptide text beside a SMILES is read from it. * marks the point of attachment. X1 = O=C([C@H](Cc1ccc(O)c(CC=[*:3])c1)N[*:1])[*:2]; X3 = C=CCc1cc(C[C@H](N[*:1])C(=O)[*:2])ccc1O; Ser(allyl) = C=CCOC[C@H](N)C(=O)O; AllylGly = C=CC[C@H](N)C(=O)O; X2 = C=CCCCCCCC(=O)*

Tested on: not listed separately
Test: Half life in rat plasma by UPLC-MS analysis
Type: ADME, cell-free

Row | half-life [h] | Structure (SMILES)
1 | 0.05 | CC[C@H](C)[C@H](NC(=O)[C@H](Cc1ccc(O)cc1)NC(=O)[C@@H]1CCCN1C(=O)[C@H](CCCNC(=N)N)NC(=O)[C@@H](N)CCCNC(=N)N)C(=O)N[C@@H](CC(C)C)C(=O)O
2 | 12 | CC[C@H](C)[C@H](NC(=O)[C@@H]1Cc2ccc(O)c(c2)CC=CCCCCCCC(=O)N[C@@H](CCCCN)C(=O)N2CCC[C@H]2C(=O)N1)C(=O)N[C@@H](CC(C)C)C(=O)O

Biological target: T1, Neurotensin receptor type 1 (Homo sapiens, UniProt P30989)
Test: Displacement of 125I-[Tyr3]-NT from human NTS1 receptor expressed in CHO-K1 cell membranes after 60 mins by gamma-counting method

T1 sequence (P30989 whole entry): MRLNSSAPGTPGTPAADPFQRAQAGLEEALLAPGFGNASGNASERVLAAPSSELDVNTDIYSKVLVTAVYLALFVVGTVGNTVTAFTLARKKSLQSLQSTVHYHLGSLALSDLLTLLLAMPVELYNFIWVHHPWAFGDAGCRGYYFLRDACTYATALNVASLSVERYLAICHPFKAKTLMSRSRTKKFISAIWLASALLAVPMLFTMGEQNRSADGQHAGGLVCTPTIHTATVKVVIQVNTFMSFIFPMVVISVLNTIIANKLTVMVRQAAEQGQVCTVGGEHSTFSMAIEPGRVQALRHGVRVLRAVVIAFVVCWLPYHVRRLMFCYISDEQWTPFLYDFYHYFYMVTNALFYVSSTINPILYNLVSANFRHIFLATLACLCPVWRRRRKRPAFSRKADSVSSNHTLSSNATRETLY

Row | IC50 [µM] | Structure (SMILES)
3 | 29.8 | CC(C)C[C@H](NC(=O)[C@@H]1COCC=CCc2cc(ccc2O)C[C@H](NC(=O)[C@@H]2CCCN2C(=O)[C@@H](N)CCCCN)C(=O)N1)C(=O)O
4 | 0.4 | CC[C@H](C)[C@H](NC(=O)[C@@H]1Cc2ccc(O)c(c2)CC=CCCCCCCC(=O)N[C@@H](CCCCN)C(=O)N2CCC[C@H]2C(=O)N1)C(=O)N[C@@H](CC(C)C)C(=O)O
5 | 7.6 | CC[C@H](C)[C@H](NC(=O)[C@@H]1Cc2ccc(O)c(c2)CC=CC[C@H](NC(=O)[C@@H](N)CCCCN)C(=O)N2CCC[C@H]2C(=O)N1)C(=O)N[C@@H](CC(C)C)C(=O)O (H-K[AllylGly]P[X1]IL-OH; staple 2-4)
6 | 10.3 | CC[C@H](C)[C@H](NC(=O)[C@@H]1Cc2ccc(O)c(c2)CC=CCOC[C@H](NC(=O)[C@@H](N)CCCCN)C(=O)N2CCC[C@H]2C(=O)N1)C(=O)N[C@@H](CC(C)C)C(=O)O (H-K[Ser(allyl)]P[X1]IL-OH; staple 2-4)
7 | 1.7 | C=CC[C@H](NC(=O)[C@H](Cc1ccc(O)cc1)NC(=O)[C@@H]1CCCN1C(=O)[C@H](CCCCN)NC(=O)[C@@H](N)CC=C)C(=O)N[C@@H](CC(C)C)C(=O)O (H-[AllylGly]KPY[AllylGly]L-OH)
8 | 1.4 | C=CCCCCCCC(=O)N[C@@H](CCCCN)C(=O)N1CCC[C@H]1C(=O)N[C@@H](Cc1ccc(O)c(CC=C)c1)C(=O)N[C@H](C(=O)N[C@@H](CC(C)C)C(=O)O)[C@@H](C)CC (X2-KP[X3]IL-OH)

Further lines, the molecule ahead of its results:

Row | Structure (SMILES) | IC50 [µM]
9 | CC(C)C[C@H](NC(=O)[C@H]1CC=CC[C@H](N)C(=O)N[C@@H](CCCCN)C(=O)N2CCC[C@H]2C(=O)N[C@@H](Cc2ccc(O)cc2)C(=O)N1)C(=O)O | 14.3
10 | CC(C)C[C@H](NC(=O)[C@@H]1CC=CC[C@@H](N)C(=O)N[C@@H](CCCCN)C(=O)N2CCC[C@H]2C(=O)N[C@@H](Cc2ccc(O)cc2)C(=O)N1)C(=O)O | 10
11 | CC(C)C[C@H](NC(=O)[C@H]1CC=CC[C@@H](N)C(=O)N[C@@H](CCCCN)C(=O)N2CCC[C@H]2C(=O)N[C@@H](Cc2ccc(O)cc2)C(=O)N1)C(=O)O | 19.8
12 | CC(C)C[C@H](NC(=O)[C@@H]1CC=CC[C@H](N)C(=O)N[C@@H](CCCCN)C(=O)N2CCC[C@H]2C(=O)N[C@@H](Cc2ccc(O)cc2)C(=O)N1)C(=O)O | 17
13 | CC[C@H](C)[C@@H]1NC(=O)[C@H](Cc2ccc(O)cc2)NC(=O)[C@@H]2CCCN2C(=O)[C@@H](NC(=O)[C@@H](N)CCCCN)CC=CC[C@@H](C(=O)O)NC1=O (H-K[AllylGly]PYI[AllylGly]-OH; staple 2-6) | > 100
14 | CC(C)C[C@H](NC(=O)[C@@H]1COCC=CCOC[C@H](N)C(=O)N[C@@H](CCCCN)C(=O)N2CCC[C@H]2C(=O)N[C@@H](Cc2ccc(O)cc2)C(=O)N1)C(=O)O (H-[Ser(allyl)]KPY[Ser(allyl)]L-OH; staple 1-5) | > 100

Biological target: T1, Neurotensin receptor type 1
Test: Agonist activity at GFP10-tagged human NTS1 expressed in CHO-K1 cells assessed as Rluc2-fused beta-arrestin2 recruitment after 20 mins by BRET assay
Type: functional, cell-based

Row | EC50 [µM] | Structure (SMILES)
15 | 1.37 | CC[C@H](C)[C@H](NC(=O)[C@@H]1Cc2ccc(O)c(c2)CC=CCCCCCCC(=O)N[C@@H](CCCCN)C(=O)N2CCC[C@H]2C(=O)N1)C(=O)N[C@@H](CC(C)C)C(=O)O
